Source: paper PMC3779320, “Bub3 reads phosphorylated MELT repeats to promote spindle assembly checkpoint signaling” (eLife, 2013)
Positions count from the first letter of the chain named. Square brackets hold non-standard residues; d marks the D form. Peptide text beside a SMILES is read from it. pT = C[C@@H](OP(=O)(O)O)[C@H](N)C(=O)O

Tests used:
Bub1^289–359–Bub3^R217A = biological target: T1, Bub1^289–359–Bub3^R217A (Saccharomyces cerevisiae, UniProt P26449+P41695, R217A); assay: ITC binding to Bub1^289–359–Bub3^R217A; conditions: Bub3 R217A compared with wild type (13- to 25-fold for R217A or R239A)
T1 construct: S. cerevisiae Bub1^289–359 and for full length Bub3; GST (N, cleaved yes); made in house; host or cells: E. coli BL21 DE3 plysS
T1 sequence (P26449 1-341 R217A): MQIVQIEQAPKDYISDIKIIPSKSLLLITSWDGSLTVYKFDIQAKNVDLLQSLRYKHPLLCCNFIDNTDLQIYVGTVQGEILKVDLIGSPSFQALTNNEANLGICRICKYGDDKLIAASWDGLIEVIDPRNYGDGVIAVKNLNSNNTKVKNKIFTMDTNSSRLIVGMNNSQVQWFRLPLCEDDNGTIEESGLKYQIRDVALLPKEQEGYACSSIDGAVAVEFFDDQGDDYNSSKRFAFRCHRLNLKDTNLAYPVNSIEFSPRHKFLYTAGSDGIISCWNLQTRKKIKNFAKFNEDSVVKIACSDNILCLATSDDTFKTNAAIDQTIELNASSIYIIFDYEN
T1 sequence (P41695 289-359): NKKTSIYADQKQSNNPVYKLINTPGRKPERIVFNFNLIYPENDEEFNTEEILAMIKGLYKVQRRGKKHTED
Excerpt: (§1) Because the presence of a phosphate on Thr172^Spc105/Knl1 is essential for high-affinity binding of ScBub1^289–359–Bub3 to MELT^P peptides (Figure 1), we concentrated our mutational analysis on two residues that are directly implicated in the recognition of the peptide’s phospho-threonine, Arg217^Bub3 and Arg239^Bub3. Positively charged residues are invariant at these positions of the Bub3 alignment (Figure 2C). We generated single or double alanine mutants of Arg217^Bub3 and Arg239^Bub3 in the context of ScBub1^289–359–Bub3 and tested their binding affinity for the MELT2^P peptide by ITC.
(§2) cDNA sequences coding for S. cerevisiae Bub1^289–359 and for full length Bub3 were subcloned in the first and second cassettes of pGEX-6P-2rbs vector ([Ciferri et al., 2005]). In this construct, the cDNA encoding Bub1^289–359 was sub-cloned in frame with the gene encoding GST and a cleavage site for PreScission protease, and was translated from the first ribosome-binding site (rbs). Untagged Bub3 was subcloned downstream of the second rbs in the same vector. Expression was carried out in BL21 DE3 plysS cells in LB medium by auto-induction with 0.3% lactose at 18°C for approximately 16 hr. […]
(§3) Binding isotherm was measured at 25°C by isothermal titration calorimetry on a MicroCal ITC200 device (GE Healthcare, Piscataway, NJ). […]

[1] = tested on: Bub1^289–359–Bub3^R217A–R239A; assay: ITC binding to Bub1^289–359–Bub3^R217A–R239A double mutant; design: species or system Saccharomyces cerevisiae; conditions: 25°C, 20 mM Tris pH7.5, 150 mM NaCl, 1 mM DTE, complex 30 µM in cell, peptide 400 µM
Excerpt: as §1, §2, §3

Bub3 = biological target: T2, Bub3 (Saccharomyces cerevisiae, UniProt P26449); assay: ITC binding to Bub3 in the absence of Bub1; conditions: Bub3 without Bub1 compared to the Bub1–Bub3 complex
T2 construct: S. cerevisiae Bub1^289–359 and for full length Bub3; made in house
T2 sequence (P26449 1-341): T1 sequence (P26449 1-341 R217A) with A217R
Description: However, as already anticipated in the Introduction, several lines of evidence indicate that Bub1 contributes to this interaction (Discussion). To test this possibility formally, we measured the binding of purified Bub3 (Figure 1D) to the MELT2^P peptide in the absence of Bub1.
Binding isotherm was measured at 25°C by isothermal titration calorimetry on a MicroCal ITC200 device (GE Healthcare, Piscataway, NJ). All samples were extensively dialysed into fresh GF buffer (20 mM Tris pH7.5, 150 mM NaCl, 1 mM DTE). In each titration, the Bub1^289–359–Bub3 in the cell (at a 30 µM concentration) was titrated with thirty-five 2-µl injections (at 90 s intervals) of the indicated synthetic MELT^P peptides (at a concentration of 400 µM). The injections were continued beyond saturation levels to allow for determination of heats of ligand dilution. Data were fitted by least-square procedures to a single-site binding model using ORIGIN 5.0 software package (MicroCal, Northampton, MA).

CC[C@H](C)[C@H](NC(=O)[C@H](CO)NC(=O)[C@H](CCCNC(=N)N)NC(=O)[C@@H]1CCCN1C(=O)[C@H](Cc1ccccc1)NC(=O)[C@@H](NC(=O)[C@H](CCC(=O)O)NC(=O)[C@@H](NC(=O)[C@H](CCSC)NC(=O)[C@H](CCC(=O)O)NC(=O)[C@H](CCSC)NC(=O)[C@H](CO)NC(=O)[C@@H](NC(=O)[C@@H]1CCCN1C(=O)[C@H](CC(=O)O)NC(C)=O)[C@@H](C)O)[C@@H](C)OP(=O)(O)O)C(C)C)C(=O)N[C@@H](CCCNC(=N)N)C(=O)N[C@@H](CCC(N)=O)C(=O)N[C@@H](CCCCN)C(=O)N[C@@H](CC(N)=O)C(N)=O [MELT2^P] (Ac-DPTSMEM[pT]EVFPRSIRQKN-NH2; N-terminus and C-terminus assumed)
fold reduction in binding affinity (Bub1^289–359–Bub3^R217A): 13 fold | binding (in words) [1]: no significant residual binding | fold reduction in binding affinity (Bub3): 10 fold
